The structures appear in SMILES notation.

The nature of series [1]: Tested for therapeutic index of compound (LD50/MES ED50). To be noted: rat; read-out: TI.
Series [2] can be described thus: Acute toxicity was measured in rats using maximal electroshock seizure test. To be noted: rat, in vivo.
Series [3] relates to Rattus norvegicus. Put plainly: Effective dose was measured in rats using subcutaneous pentylenetetrazole seizure test. Type of series: functional. The settings on record: sc.
For series [4], the species on record is Rattus norvegicus. Put plainly: % protection was measured in rats using maximal electroshock seizure test; p<0.01. It counts as functional. Background: In the maximal electroshock model the usual endpoint is tonic extension of the hind limbs.
The test system of series [5] is Rattus norvegicus. The series can be described thus: % protection was measured in rats using subcutaneous pentylenetetrazole seizure test; p<0.05. Type of series: functional.
The species named for series [6] is Rattus norvegicus. Put plainly: Effective dose was measured in rats using maximal electroshock seizure test. It counts as functional.
Series [7] relates to Rattus norvegicus. Put plainly: Sleeping time was determined in rats after administration of compound; non-significant. Type of series: functional.
The species entered for series [8] is Rattus norvegicus. The series can be described thus: The activity was measured by using barbiturate hypnosis potentiation effect test. Type of series: functional.
Series [9] is filed under the species Rattus norvegicus. Put plainly: % protection was measured in rats using maximal electroshock seizure test. Type of series: functional.
For series [10], the system named is Rattus norvegicus. Put plainly: Effective dose was measured in rats using maximal electroshock seizure test(ip); showed no protection up to 100 mg/kg (i.p. dose). Type of series: functional, organism-based. Details: dose 100 mg/kg.
The test system of series [11] is Rattus norvegicus. Put plainly: Effective dose was measured in rats using maximal electroshock seizure test(ip); showed no protection up to 120 mg/kg (i.p. dose). Type of series: functional, organism-based. On the set-up: dose 120 mg/kg.
For series [12], the system named is Rattus norvegicus. The series can be described thus: % protection was measured in rats using subcutaneous pentylenetetrazole seizure test. It counts as functional. On the set-up: concentration or dose not given beside the values.
Series [13] has as its system Rattus norvegicus. The series can be described thus: Sleeping time was determined in rats after administration of compound; NS non-significant. It counts as functional.
For series [14], the species on record is Rattus norvegicus. Put plainly: % protection was measured in rats using maximal electroshock seizure test; p<0.05. It counts as functional.
In series [15] the test system is Rattus norvegicus. The series can be described thus: Sleeping time was determined in rats at 30 mg/kg intraperitoneal dose. Type of series: functional.
In series [16] the test system is Rattus norvegicus. Put plainly: Sleeping time was determined in rats after administration of compound; p<0.05. Type of series: functional.

For `S=C(/N=c1\snc(Nc2ccc(Cl)cc2)n1-c1ccc(Cl)cc1)Nc1ccc(Cl)cc1`, in series [1], the selectivity ratio was determined as 11.7. Also, in series [2], the 50% lethal dose (LD50) came out at 117 mg/kg. In addition, the 50% effective dose (ED50) turned out to be 22.1 mg/kg in the series on Rattus norvegicus [3] and 10 mg/kg in the series filed under Rattus norvegicus [6]. Also, the Protection in the series listed under Rattus norvegicus [4] turned out to be 87.5%; with Rattus norvegicus [5] it was 75%. The Sleeping time in the series with Rattus norvegicus [7] was 72.81 min. For the same compound, the Hypnosis potentiation in the series filed under Rattus norvegicus [8] is on record as 11.58%.
Take `COc1ccccc1Nc1ns/c(=N\C(S)=N\c2ccc(Cl)cc2)n1-c1ccccc1OC`: the Protection in the series listed under Rattus norvegicus [9] and in the series on Rattus norvegicus [12] was 0% each time. Also, the ED50 result in the series on Rattus norvegicus [10] and with Rattus norvegicus [11] was “no protection up to 100 mg/kg” in each case.
With `S=C(/N=c1\snc(Nc2ccccc2Cl)n1-c1ccccc1Cl)Nc1ccc(Cl)cc1`, the selectivity ratio in series [1] is 14.6. Further, the Sleeping time in the series with Rattus norvegicus [13] is recorded as 78.68 min. Moreover, in series [2], the 50% lethal dose (LD50) is 175 mg/kg. Further, the ED50 with Rattus norvegicus [3] came out at 35.1 mg/kg; in the series listed under Rattus norvegicus [6] it was 12 mg/kg. The Protection in the series with Rattus norvegicus [12] came to 0%; in the series listed under Rattus norvegicus [14], 75%. The Hypnosis potentiation in the series filed under Rattus norvegicus [8] was 20.58%.
Consider `CCCC(C)C1(CC)C(=O)N=C([O-])NC1=O.[Na+]` (stereo unspecified) [PENTOBARBITAL SODIUM], for which, in the series with Rattus norvegicus [15], the Sleeping time worked out at 65.25 min.
Turning to `Cc1cccc(Nc2ns/c(=N\C(S)=N\c3ccc(Cl)cc3)n2-c2cccc(C)c2)c1`, the Protection in the series filed under Rattus norvegicus [9] and in the series with Rattus norvegicus [12] was 0% throughout. The ED50 entry with Rattus norvegicus [10] and in the series with Rattus norvegicus [11] was “no protection up to 100 mg/kg” in each case.
As to `S=C(/N=c1\snc(Nc2ccccc2)n1-c1ccccc1)Nc1ccc(Cl)cc1`, the selectivity ratio in series [1] is 3.26. Besides, the Protection in the series filed under Rattus norvegicus [9] turned out to be 25%; in the series on Rattus norvegicus [12], 0%. The LD50 in series [2] came out at 250 mg/kg. In the series filed under Rattus norvegicus [6], this compound yielded an ED50 of 76.5 mg/kg. In the series with Rattus norvegicus [7], the Sleeping time worked out at 68.5 min. For the same compound, the Hypnosis potentiation in the series listed under Rattus norvegicus [8] is recorded as 4.98%.
In the case of `COc1cccc(Nc2ns/c(=N\C(S)=N\c3ccc(Cl)cc3)n2-c2cccc(OC)c2)c1`, the Protection in the series filed under Rattus norvegicus [9] and in the series on Rattus norvegicus [12] was 0% in each case. The ED50 entry in the series with Rattus norvegicus [10] and in the series on Rattus norvegicus [11] was “no protection up to 100 mg/kg” each time.
For the compound `COc1ccc(Nc2ns/c(=N\C(S)=N\c3ccc(Cl)cc3)n2-c2ccc(OC)cc2)cc1`, the selectivity ratio in series [1] is 10.3. Further, the values for the Protection in the series filed under Rattus norvegicus [9] and in the series on Rattus norvegicus [12] were 50% and 0%, respectively. In the series on Rattus norvegicus [13], this compound yielded a Sleeping time of 67.3 min. In series [2], this compound returned an LD50 of 210 mg/kg. In addition, the ED50 in the series with Rattus norvegicus [3] worked out at 150 mg/kg; in the series filed under Rattus norvegicus [6], 20.3 mg/kg. Further, the Hypnosis potentiation in the series listed under Rattus norvegicus [8] was determined as 3.14%.
In series [2], `O=C1NC(=O)C(c2ccccc2)(c2ccccc2)N1` [PHENYTOIN] came in with a 50% lethal dose (LD50) of 65.5 mg/kg. For the same compound, the median effective dose (ED50) in the series with Rattus norvegicus [3] came to 100 mg/kg; in the series filed under Rattus norvegicus [6], 9.5 mg/kg. In addition, the figures for the Protection in the series on Rattus norvegicus [12] and in the series filed under Rattus norvegicus [14] were 37.5% and 75%, respectively. Also, in the series with Rattus norvegicus [16], the Sleeping time is 100.5 min. The Hypnosis potentiation in the series listed under Rattus norvegicus [8] turned out to be 54.02%.
For `S=C(/N=c1\snc(Nc2cccc(Cl)c2)n1-c1cccc(Cl)c1)Nc1ccc(Cl)cc1`, the selectivity ratio in series [1] was found to be 6.85. This compound also displayed an LD50 in series [2] of 120 mg/kg. In addition, the median effective dose (ED50) with Rattus norvegicus [3] was 26.2 mg/kg; in the series filed under Rattus norvegicus [6] it was 17.5 mg/kg. Also, the Protection with Rattus norvegicus [12] and in the series listed under Rattus norvegicus [14] was 75% throughout. Further, the Sleeping time in the series on Rattus norvegicus [7] is 69.15 min. The Hypnosis potentiation in the series filed under Rattus norvegicus [8] is given as 5.97%.
In the case of `Cc1ccccc1Nc1ns/c(=N\C(S)=N\c2ccc(Cl)cc2)n1-c1ccccc1C`, the Protection in the series listed under Rattus norvegicus [9] and with Rattus norvegicus [12] was 0% each time. Also, the ED50 entry in the series on Rattus norvegicus [10] and in the series on Rattus norvegicus [11] was “no protection up to 100 mg/kg” in each case.
For the compound `Cc1ccc(Nc2ns/c(=N\C(S)=N\c3ccc(Cl)cc3)n2-c2ccc(C)cc2)cc1`, the selectivity ratio in series [1] worked out at 6.42. For the same compound, the Protection in the series filed under Rattus norvegicus [9] is listed as 50%; with Rattus norvegicus [12], 0%. Further, the median lethal dose (LD50) in series [2] is 300 mg/kg. For the same compound, the figures for the ED50 result in the series on Rattus norvegicus [11] and in the series listed under Rattus norvegicus [6] were “no protection up to 120 mg/kg” and 46.7 mg/kg, respectively. The compound further came in with a Sleeping time in the series on Rattus norvegicus [7] of 75.45 min. Also, the Hypnosis potentiation in the series listed under Rattus norvegicus [8] was determined as 15.63%.

By LD50 is commonly meant the dose at which mortality reaches 50%. What is called ED50 is the dose at which the effect has come halfway, by size or by number of responders.

These data come from ChEMBL document CHEMBL1127205, “Synthesis and anticonvulsant activity of 3-arylamino-4-aryl-5-(N-4-chlorophenylthiocarbamido)-1,2,4-thiadiazoles” (Bioorg Med Chem Lett, 1993).
